Source: patent US20240158370A1, “CK1 alpha AND DUAL CK1 alpha / GSPT1 DEGRADING COMPOUNDS” (Innovo Therapeutics, Inc., priority 2022, published 2024)

How the values were obtained:
CK1α = biological target: T1, CK1α (Homo sapiens, UniProt P48729+Q96SW2); assay: HiBiT degradation assay, CK1α, Procedure A; type: cell-based; conditions: six hours incubation
T1 construct: CSNK1A1-HiBit KI HEK293(LgBit) Cells; host or cells: HEK293(LgBit) knock-in cells
How it was run: (§1)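 10-pt dose response, 10–0.005 μM, 0.1% DMSO; cells 1×10^6/ml in DMEM/10% FBS, 6 h, 37° C; HiBiT lytic detection, luminescence; DC50 + Ymin by 4-parameter fit.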

GSPT1 = GSPT1 (Homo sapiens, UniProt P15170+Q96SW2); assay: HiBiT degradation assay, GSPT1, Procedure A; type: cell-based; parameters: HiBit-GSPT1 KI HEK293(LgBit) Cells; host or cells: HEK293(LgBit) knock-in cells; conditions: six hours incubation
Chain of GSPT1 (P15170 whole entry): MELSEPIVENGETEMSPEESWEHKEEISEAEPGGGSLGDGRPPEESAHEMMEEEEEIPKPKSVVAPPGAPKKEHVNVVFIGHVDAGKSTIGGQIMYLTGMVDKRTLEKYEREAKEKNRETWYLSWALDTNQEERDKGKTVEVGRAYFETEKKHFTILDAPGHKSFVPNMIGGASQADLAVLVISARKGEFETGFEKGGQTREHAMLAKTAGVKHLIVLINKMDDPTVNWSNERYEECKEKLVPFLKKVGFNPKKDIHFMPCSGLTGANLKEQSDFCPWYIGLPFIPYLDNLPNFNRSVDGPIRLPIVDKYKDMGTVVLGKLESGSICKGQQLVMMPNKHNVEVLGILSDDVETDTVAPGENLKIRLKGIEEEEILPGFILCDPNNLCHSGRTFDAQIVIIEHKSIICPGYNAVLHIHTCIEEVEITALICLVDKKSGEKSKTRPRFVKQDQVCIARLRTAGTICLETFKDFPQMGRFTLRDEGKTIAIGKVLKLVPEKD
Chain of GSPT1 (Q96SW2 whole entry): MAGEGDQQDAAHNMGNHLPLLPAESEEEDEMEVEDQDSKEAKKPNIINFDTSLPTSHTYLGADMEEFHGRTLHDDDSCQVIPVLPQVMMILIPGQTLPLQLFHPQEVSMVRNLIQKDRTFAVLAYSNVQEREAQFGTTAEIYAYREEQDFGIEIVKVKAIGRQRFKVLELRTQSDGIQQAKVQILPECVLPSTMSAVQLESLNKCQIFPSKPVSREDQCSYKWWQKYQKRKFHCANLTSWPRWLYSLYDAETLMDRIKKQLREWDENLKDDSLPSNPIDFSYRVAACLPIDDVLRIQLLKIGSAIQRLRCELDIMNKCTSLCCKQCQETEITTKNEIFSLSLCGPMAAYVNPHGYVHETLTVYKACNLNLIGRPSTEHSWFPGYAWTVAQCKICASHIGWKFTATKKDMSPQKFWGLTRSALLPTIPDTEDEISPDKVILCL
Chain of GSPT1 (Q16531 whole entry partner): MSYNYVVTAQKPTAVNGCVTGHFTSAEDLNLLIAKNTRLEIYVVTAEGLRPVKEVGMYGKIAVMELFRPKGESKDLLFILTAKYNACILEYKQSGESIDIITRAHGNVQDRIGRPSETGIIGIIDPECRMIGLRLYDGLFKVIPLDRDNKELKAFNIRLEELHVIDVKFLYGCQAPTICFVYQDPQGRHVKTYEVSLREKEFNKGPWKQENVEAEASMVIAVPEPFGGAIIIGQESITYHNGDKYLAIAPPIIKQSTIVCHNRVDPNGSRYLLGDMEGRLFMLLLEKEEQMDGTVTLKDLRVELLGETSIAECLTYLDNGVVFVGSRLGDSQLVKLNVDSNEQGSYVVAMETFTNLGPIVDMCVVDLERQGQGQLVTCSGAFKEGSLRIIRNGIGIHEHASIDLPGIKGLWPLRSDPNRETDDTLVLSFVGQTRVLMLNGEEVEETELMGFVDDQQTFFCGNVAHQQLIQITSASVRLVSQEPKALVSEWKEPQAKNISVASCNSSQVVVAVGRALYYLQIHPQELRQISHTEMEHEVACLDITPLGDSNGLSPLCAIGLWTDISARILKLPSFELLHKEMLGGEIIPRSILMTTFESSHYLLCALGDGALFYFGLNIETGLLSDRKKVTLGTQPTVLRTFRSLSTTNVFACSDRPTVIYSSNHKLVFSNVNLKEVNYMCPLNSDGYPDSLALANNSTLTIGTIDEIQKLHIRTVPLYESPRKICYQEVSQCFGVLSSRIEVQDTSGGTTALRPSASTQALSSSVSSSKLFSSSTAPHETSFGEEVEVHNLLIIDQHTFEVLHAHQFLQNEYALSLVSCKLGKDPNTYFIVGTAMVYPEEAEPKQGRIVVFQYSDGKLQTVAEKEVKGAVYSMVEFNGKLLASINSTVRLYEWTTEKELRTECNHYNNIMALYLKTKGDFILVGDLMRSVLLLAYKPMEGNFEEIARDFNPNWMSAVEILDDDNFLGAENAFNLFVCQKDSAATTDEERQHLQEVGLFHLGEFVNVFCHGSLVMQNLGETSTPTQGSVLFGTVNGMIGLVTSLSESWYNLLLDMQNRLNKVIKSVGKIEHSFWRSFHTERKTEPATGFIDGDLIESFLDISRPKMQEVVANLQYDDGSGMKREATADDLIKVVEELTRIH
How it was run: as §1

T1 sequence (P48729 whole entry): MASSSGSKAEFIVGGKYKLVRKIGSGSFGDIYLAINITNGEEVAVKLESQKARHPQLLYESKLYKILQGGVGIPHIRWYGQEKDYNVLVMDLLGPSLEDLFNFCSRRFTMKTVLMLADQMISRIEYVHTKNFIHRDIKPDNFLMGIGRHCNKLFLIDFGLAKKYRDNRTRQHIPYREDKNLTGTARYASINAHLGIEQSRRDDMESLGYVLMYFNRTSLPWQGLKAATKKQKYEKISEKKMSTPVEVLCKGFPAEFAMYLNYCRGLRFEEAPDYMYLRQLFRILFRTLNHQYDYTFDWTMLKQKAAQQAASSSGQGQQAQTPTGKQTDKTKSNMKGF
T1 sequence (Q96SW2 whole entry): as the sequence (Q96SW2 whole entry) above
T1 sequence (Q16531 whole entry partner): as the sequence (Q16531 whole entry partner) above

SMILES | CK1α Ymin (CK1α) | DC50 (CK1α) [nM] | DC50 (GSPT1) [nM] | GSPT1 Ymin (GSPT1)
COc1ccc(-c2c(-c3ccc4c(c3)CN(C3CCC(=O)NC3=O)C4=O)cnn2C)cc1O (stereo not shown) [Example 222] | C (C = 0-10% remaining) | < 25 | ≥ 25 | F (F = >75-100% remaining)
Cn1ncc(-c2ccc3c(c2)CN(C2CCC(=O)NC2=O)C3=O)c1-c1ccc(C#N)cc1F (stereo not shown) [Example 225] | E (E = >25-75% remaining) | ≥ 25 | ≥ 25 | F (F = >75-100% remaining)
Cn1cnc(-c2ccc3c(c2)CN(C2CCC(=O)NC2=O)C3=O)c1-c1ccsc1 (stereo not shown) [Example 226] | C (C = 0-10% remaining) | < 25 | < 25 | E (E = >25-75% remaining)
Cc1ccc(-c2c(-c3ccc4c(c3)CN(C3CCC(=O)NC3=O)C4=O)ncn2C)cc1 (stereo not shown) [Example 227] | D (D = >10- 25% remaining) | < 25 | < 25 | E (E = >25-75% remaining)
Cn1cnc(-c2ccc3c(c2)CN(C2CCC(=O)NC2=O)C3=O)c1-c1cccc(O)c1 (stereo not shown) [Example 228] | C (C = 0-10% remaining) | < 25 | ≥ 25 | D (D = >10- 25% remaining)
Cc1ccc(-c2c(-c3ccc4c(c3)CN(C3CCC(=O)NC3=O)C4=O)ncn2C)s1 (stereo not shown) [Example 229] | C (C = 0-10% remaining) | < 25 | < 25 | E (E = >25-75% remaining)
Cc1csc(-c2c(-c3ccc4c(c3)CN(C3CCC(=O)NC3=O)C4=O)ncn2C)c1 (stereo not shown) [Example 230] | C (C = 0-10% remaining) | < 25 | < 25 | E (E = >25-75% remaining)
Cc1sccc1-c1c(-c2ccc3c(c2)CN(C2CCC(=O)NC2=O)C3=O)ncn1C (stereo not shown) [Example 231] | D (D = >10- 25% remaining) | < 25 | ≥ 25 | F (F = >75-100% remaining)
Cn1cnc(-c2ccc3c(c2)CN(C2CCC(=O)NC2=O)C3=O)c1-c1cccc(C#N)c1 (stereo not shown) [Example 232] | D (D = >10- 25% remaining) | < 25 | ≥ 25 | F (F = >75-100% remaining)
Cn1cnc(-c2ccc3c(c2)CN(C2CCC(=O)NC2=O)C3=O)c1-c1ccccc1C#N (stereo not shown) [Example 233] | D (D = >10- 25% remaining) | < 25 | ≥ 25 | F (F = >75-100% remaining)
Cc1ccc(C)c(-c2c(-c3ccc4c(c3)CN(C3CCC(=O)NC3=O)C4=O)ncn2C)c1 (stereo not shown) [Example 234] | D (D = >10- 25% remaining) | < 25 | ≥ 25 | F (F = >75-100% remaining)
COc1ccccc1-c1c(-c2ccc3c(c2)CN(C2CCC(=O)NC2=O)C3=O)ncn1C (stereo not shown) [Example 235] | D (D = >10- 25% remaining) | < 25 | ≥ 25 | F (F = >75-100% remaining)
Cn1cnc(-c2ccc3c(c2)CN(C2CCC(=O)NC2=O)C3=O)c1-c1ccc(CO)cc1 (stereo not shown) [Example 236] | C (C = 0-10% remaining) | < 25 | ≥ 25 | E (E = >25-75% remaining)
Cc1ccc(F)cc1-c1c(-c2ccc3c(c2)CN(C2CCC(=O)NC2=O)C3=O)ncn1C (stereo not shown) [Example 237] | E (E = >25-75% remaining) | < 25 | ≥ 25 | F (F = >75-100% remaining)
Cc1cc(-c2c(-c3ccc4c(c3)CN(C3CCC(=O)NC3=O)C4=O)ncn2C)ccc1F (stereo not shown) [Example 238] | D (D = >10- 25% remaining) | < 25 | ≥ 25 | F (F = >75-100% remaining)
Cc1ccc(-c2c(-c3ccc4c(c3)CN(C3CCC(=O)NC3=O)C4=O)ncn2C)c(F)c1 (stereo not shown) [Example 239] | C (C = 0-10% remaining) | < 25 | < 25 | F (F = >75-100% remaining)
